Numbers after ± are expanded uncertainties.

Data set [1] is described as follows: Molar enthalpy of transition or fusion. Conditions: Crystal; DSC.
For data set [2] the following is noted: Crystal; DTA.

Take `N[C@@H](Cc1ccccc1)C(=O)O` [L-phenylalanine]: the “Molar enthalpy of transition or fusion” value in data set [1] came to 4.41 ± 0.136 kcal/mol. In addition, in data set [2], the Triple point temperature was found to be 556.15 ± 0.5 K.

The values are drawn from the NIST ThermoML archive (doi:10.1021/je201354k).
